# According to the kinase profiling compilation of Christmann-Franck et al. (2016):
# Biological target: EPHB1 (human) (UniProt P54762)
# Test: radiometric filter-binding kinase assay, Kinase HotSpot
# Conditions: compound 0.5 µM; ATP 10 µM
row,SMILES,residual activity
1,O=C(O)c1ccc2c3c1cccc3c(=O)n1c3ccccc3nc21,97.5%
2,Cc1cc(Nc2nc(-c3ccccc3)nc3ccccc23)n[nH]1,93.1%
3,N#Cc1c(NC(=O)c2cccc3ccccc23)sc2c1CCCC2,95.9%
4,COc1cc2ncnc(Nc3ccc(O)c(Br)c3)c2cc1OC,81.4%
5,CCOc1cc2ncnc(Nc3cccc(Br)c3)c2cc1OCC,73.8%

# Biological target: CDK1 CCNB1 (human) (UniProt P06493+P14635)
# Test: as above
# Conditions: compound 0.5 µM; ATP 10 µM
# Sequence of CDK1 CCNB1 (human) (P06493 whole entry, looked up): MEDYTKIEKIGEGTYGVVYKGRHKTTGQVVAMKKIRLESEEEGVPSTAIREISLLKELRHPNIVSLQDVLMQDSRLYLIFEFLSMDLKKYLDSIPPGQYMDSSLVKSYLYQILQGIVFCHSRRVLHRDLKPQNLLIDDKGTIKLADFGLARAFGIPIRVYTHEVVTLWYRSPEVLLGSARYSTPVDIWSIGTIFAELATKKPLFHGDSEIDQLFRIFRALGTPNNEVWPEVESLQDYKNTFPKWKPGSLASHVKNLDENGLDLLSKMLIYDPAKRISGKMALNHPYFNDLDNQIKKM
# Sequence of CDK1 CCNB1 (human) (P14635 whole entry, looked up): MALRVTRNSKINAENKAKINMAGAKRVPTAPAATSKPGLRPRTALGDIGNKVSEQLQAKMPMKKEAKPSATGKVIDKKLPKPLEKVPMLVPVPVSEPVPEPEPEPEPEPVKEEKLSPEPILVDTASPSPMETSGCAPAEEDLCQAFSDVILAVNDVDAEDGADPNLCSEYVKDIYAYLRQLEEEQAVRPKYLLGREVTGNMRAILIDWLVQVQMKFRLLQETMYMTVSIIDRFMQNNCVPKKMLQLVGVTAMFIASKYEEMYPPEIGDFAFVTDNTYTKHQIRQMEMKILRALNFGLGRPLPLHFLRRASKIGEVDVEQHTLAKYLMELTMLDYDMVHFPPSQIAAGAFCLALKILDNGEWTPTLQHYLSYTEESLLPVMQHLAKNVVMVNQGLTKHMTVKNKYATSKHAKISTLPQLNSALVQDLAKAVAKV
row,SMILES,residual activity
1,O=C(O)c1ccc2c3c1cccc3c(=O)n1c3ccccc3nc21,65%
2,Cc1cc(Nc2nc(-c3ccccc3)nc3ccccc23)n[nH]1,76%
3,N#Cc1c(NC(=O)c2cccc3ccccc23)sc2c1CCCC2,111%
4,COc1cc2ncnc(Nc3ccc(O)c(Br)c3)c2cc1OC,81.3%
5,CCOc1cc2ncnc(Nc3cccc(Br)c3)c2cc1OCC,80.8%

# Biological target: PAK4 (human) (UniProt O96013)
# Test: as above
# Conditions: compound 0.5 µM; ATP 10 µM
# Sequence of PAK4 (human) (O96013 whole entry, looked up): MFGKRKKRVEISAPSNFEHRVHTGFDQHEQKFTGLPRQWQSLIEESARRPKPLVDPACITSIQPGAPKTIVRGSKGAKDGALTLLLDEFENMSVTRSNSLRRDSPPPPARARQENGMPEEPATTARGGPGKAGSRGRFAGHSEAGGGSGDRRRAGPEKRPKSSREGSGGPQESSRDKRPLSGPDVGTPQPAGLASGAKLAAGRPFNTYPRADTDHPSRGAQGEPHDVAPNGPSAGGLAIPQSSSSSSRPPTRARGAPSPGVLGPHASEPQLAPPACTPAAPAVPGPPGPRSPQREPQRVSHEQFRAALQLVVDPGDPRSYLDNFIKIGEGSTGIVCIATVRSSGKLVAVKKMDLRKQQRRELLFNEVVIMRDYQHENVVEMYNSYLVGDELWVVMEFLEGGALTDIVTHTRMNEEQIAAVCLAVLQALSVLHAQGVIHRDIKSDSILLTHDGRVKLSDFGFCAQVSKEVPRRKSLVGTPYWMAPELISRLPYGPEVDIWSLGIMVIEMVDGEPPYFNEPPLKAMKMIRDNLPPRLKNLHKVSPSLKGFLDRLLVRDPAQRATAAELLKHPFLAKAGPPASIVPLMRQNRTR
row,SMILES,residual activity
1,O=C(O)c1ccc2c3c1cccc3c(=O)n1c3ccccc3nc21,114%
2,Cc1cc(Nc2nc(-c3ccccc3)nc3ccccc23)n[nH]1,84.2%
3,N#Cc1c(NC(=O)c2cccc3ccccc23)sc2c1CCCC2,95.2%
4,COc1cc2ncnc(Nc3ccc(O)c(Br)c3)c2cc1OC,95.7%
5,CCOc1cc2ncnc(Nc3cccc(Br)c3)c2cc1OCC,115%

# Biological target: PRKCZ (human) (UniProt Q05513)
# Test: as above
# Conditions: compound 0.5 µM; ATP 10 µM
row,SMILES,residual activity
1,O=C(O)c1ccc2c3c1cccc3c(=O)n1c3ccccc3nc21,94.3%
2,Cc1cc(Nc2nc(-c3ccccc3)nc3ccccc23)n[nH]1,97.1%
3,N#Cc1c(NC(=O)c2cccc3ccccc23)sc2c1CCCC2,102%
4,COc1cc2ncnc(Nc3ccc(O)c(Br)c3)c2cc1OC,93%
5,CCOc1cc2ncnc(Nc3cccc(Br)c3)c2cc1OCC,97.8%

# Biological target: EPHA4 (human) (UniProt P54764)
# Test: as above
# Conditions: compound 0.5 µM; ATP 10 µM
# Sequence of EPHA4 (human) (P54764 whole entry, looked up): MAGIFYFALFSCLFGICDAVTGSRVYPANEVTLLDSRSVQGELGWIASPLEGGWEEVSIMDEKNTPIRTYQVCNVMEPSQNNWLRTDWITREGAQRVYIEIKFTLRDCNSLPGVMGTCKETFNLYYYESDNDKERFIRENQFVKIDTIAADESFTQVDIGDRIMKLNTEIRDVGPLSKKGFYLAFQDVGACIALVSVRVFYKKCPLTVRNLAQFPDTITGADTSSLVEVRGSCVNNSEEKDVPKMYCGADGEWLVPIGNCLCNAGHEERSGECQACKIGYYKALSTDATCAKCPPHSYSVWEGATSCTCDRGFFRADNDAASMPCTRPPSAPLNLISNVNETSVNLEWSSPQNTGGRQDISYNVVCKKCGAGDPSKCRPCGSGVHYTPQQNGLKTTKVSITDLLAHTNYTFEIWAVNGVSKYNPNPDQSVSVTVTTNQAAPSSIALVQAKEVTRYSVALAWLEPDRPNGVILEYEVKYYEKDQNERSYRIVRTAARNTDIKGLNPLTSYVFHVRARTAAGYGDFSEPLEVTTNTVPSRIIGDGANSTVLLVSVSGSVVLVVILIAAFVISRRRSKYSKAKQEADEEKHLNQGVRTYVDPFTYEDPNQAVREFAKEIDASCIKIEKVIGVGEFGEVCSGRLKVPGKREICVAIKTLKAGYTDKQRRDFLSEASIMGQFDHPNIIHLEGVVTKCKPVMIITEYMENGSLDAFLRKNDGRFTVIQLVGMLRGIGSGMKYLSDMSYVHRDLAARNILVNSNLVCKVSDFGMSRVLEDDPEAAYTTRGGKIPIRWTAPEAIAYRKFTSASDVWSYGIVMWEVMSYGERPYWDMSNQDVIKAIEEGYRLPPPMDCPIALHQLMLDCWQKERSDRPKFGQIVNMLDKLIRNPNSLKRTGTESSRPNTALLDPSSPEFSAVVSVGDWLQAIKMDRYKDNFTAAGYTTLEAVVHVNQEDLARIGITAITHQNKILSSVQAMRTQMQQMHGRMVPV
row,SMILES,residual activity
1,O=C(O)c1ccc2c3c1cccc3c(=O)n1c3ccccc3nc21,103%
2,Cc1cc(Nc2nc(-c3ccccc3)nc3ccccc23)n[nH]1,70.7%
3,N#Cc1c(NC(=O)c2cccc3ccccc23)sc2c1CCCC2,99%
4,COc1cc2ncnc(Nc3ccc(O)c(Br)c3)c2cc1OC,83.7%
5,CCOc1cc2ncnc(Nc3cccc(Br)c3)c2cc1OCC,75.1%

# Biological target: PDPK1 (human) (UniProt O15530)
# Test: as above
# Conditions: compound 0.5 µM; ATP 10 µM
# Sequence of PDPK1 (human) (O15530 whole entry, looked up): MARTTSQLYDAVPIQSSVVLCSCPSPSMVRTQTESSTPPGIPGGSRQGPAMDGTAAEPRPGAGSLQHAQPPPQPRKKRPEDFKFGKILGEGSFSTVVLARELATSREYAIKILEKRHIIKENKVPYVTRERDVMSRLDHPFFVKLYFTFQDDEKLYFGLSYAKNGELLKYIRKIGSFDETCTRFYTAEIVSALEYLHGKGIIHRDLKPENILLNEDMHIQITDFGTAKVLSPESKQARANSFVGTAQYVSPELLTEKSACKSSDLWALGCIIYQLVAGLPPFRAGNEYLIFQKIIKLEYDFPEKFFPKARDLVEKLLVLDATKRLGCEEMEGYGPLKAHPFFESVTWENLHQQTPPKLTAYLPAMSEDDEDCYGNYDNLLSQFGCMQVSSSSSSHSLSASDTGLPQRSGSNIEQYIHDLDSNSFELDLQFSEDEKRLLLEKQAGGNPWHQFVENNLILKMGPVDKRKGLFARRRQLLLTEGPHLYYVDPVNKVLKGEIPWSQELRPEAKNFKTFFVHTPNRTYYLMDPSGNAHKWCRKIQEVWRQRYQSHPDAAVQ
row,SMILES,residual activity
1,O=C(O)c1ccc2c3c1cccc3c(=O)n1c3ccccc3nc21,108%
2,Cc1cc(Nc2nc(-c3ccccc3)nc3ccccc23)n[nH]1,90.3%
3,N#Cc1c(NC(=O)c2cccc3ccccc23)sc2c1CCCC2,92.1%
4,COc1cc2ncnc(Nc3ccc(O)c(Br)c3)c2cc1OC,96.6%
5,CCOc1cc2ncnc(Nc3cccc(Br)c3)c2cc1OCC,96.8%

# Biological target: PRKX (human) (UniProt P51817)
# Test: as above
# Conditions: compound 0.5 µM; ATP 10 µM
# Sequence of PRKX (human) (P51817 whole entry, looked up): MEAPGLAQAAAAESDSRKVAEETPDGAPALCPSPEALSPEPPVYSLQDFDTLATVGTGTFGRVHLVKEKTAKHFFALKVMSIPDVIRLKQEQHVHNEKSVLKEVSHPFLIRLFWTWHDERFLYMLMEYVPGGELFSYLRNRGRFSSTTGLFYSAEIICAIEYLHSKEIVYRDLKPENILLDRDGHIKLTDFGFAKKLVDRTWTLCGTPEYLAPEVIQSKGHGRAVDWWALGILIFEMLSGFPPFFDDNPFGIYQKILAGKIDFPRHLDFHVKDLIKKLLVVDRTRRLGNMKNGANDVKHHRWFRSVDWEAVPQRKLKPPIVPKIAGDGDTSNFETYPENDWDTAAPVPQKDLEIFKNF
row,SMILES,residual activity
1,O=C(O)c1ccc2c3c1cccc3c(=O)n1c3ccccc3nc21,93.7%
2,Cc1cc(Nc2nc(-c3ccccc3)nc3ccccc23)n[nH]1,101%
3,N#Cc1c(NC(=O)c2cccc3ccccc23)sc2c1CCCC2,103%
4,COc1cc2ncnc(Nc3ccc(O)c(Br)c3)c2cc1OC,89.2%
5,CCOc1cc2ncnc(Nc3cccc(Br)c3)c2cc1OCC,99.8%

# Biological target: SRMS (human) (UniProt Q9H3Y6)
# Test: as above
# Conditions: compound 0.5 µM; ATP 10 µM
# Sequence of SRMS (human) (Q9H3Y6 whole entry, looked up): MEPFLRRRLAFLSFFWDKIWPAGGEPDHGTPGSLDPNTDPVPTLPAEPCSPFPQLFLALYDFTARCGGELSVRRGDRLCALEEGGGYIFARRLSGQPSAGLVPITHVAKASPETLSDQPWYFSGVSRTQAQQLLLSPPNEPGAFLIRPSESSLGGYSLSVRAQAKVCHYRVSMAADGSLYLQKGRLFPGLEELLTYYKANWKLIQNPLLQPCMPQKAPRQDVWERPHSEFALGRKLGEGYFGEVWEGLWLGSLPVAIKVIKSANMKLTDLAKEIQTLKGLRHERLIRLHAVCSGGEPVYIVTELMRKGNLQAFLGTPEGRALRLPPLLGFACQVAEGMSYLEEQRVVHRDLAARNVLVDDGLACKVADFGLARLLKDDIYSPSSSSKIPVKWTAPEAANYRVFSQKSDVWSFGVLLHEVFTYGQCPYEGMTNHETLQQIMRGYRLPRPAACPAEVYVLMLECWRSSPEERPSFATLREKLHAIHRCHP
row,SMILES,residual activity
1,O=C(O)c1ccc2c3c1cccc3c(=O)n1c3ccccc3nc21,106%
2,Cc1cc(Nc2nc(-c3ccccc3)nc3ccccc23)n[nH]1,98.7%
3,N#Cc1c(NC(=O)c2cccc3ccccc23)sc2c1CCCC2,106%
4,COc1cc2ncnc(Nc3ccc(O)c(Br)c3)c2cc1OC,90.4%
5,CCOc1cc2ncnc(Nc3cccc(Br)c3)c2cc1OCC,85.7%

# Biological target: CSNK1G1 (human) (UniProt Q9HCP0)
# Test: as above
# Conditions: compound 0.5 µM; ATP 10 µM
row,SMILES,residual activity
1,O=C(O)c1ccc2c3c1cccc3c(=O)n1c3ccccc3nc21,99.5%
2,Cc1cc(Nc2nc(-c3ccccc3)nc3ccccc23)n[nH]1,75.7%
3,N#Cc1c(NC(=O)c2cccc3ccccc23)sc2c1CCCC2,109%
4,COc1cc2ncnc(Nc3ccc(O)c(Br)c3)c2cc1OC,92.4%
5,CCOc1cc2ncnc(Nc3cccc(Br)c3)c2cc1OCC,107%

# Biological target: EPHA2 (human) (UniProt P29317)
# Test: as above
# Conditions: compound 0.5 µM; ATP 10 µM
# Sequence of EPHA2 (human) (P29317 whole entry, looked up): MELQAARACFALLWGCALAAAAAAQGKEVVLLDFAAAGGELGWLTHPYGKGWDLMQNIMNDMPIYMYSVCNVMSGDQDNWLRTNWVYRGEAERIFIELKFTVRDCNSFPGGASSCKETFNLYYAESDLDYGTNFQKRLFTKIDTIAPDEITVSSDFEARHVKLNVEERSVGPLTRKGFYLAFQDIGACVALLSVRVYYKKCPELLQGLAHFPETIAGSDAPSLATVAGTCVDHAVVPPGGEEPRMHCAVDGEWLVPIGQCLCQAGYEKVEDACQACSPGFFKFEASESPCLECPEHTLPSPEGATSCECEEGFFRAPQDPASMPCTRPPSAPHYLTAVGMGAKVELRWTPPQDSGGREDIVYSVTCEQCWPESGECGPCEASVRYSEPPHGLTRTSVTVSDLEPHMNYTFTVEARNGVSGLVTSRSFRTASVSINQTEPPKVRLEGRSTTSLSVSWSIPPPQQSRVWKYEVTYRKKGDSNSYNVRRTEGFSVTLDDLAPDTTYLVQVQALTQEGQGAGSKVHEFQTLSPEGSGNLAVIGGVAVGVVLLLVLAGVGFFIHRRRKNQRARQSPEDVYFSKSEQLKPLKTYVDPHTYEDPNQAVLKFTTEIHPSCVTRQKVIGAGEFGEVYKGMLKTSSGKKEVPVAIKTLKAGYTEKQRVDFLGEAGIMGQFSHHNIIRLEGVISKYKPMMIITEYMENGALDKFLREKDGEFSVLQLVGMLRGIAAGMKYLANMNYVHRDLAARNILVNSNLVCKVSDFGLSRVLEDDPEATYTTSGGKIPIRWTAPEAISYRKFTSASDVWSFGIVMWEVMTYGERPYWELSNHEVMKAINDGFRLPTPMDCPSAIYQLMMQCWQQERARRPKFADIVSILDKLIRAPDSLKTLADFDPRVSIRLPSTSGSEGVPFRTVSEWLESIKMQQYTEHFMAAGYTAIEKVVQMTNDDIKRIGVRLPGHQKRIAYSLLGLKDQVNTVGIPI
row,SMILES,residual activity
1,O=C(O)c1ccc2c3c1cccc3c(=O)n1c3ccccc3nc21,102%
2,Cc1cc(Nc2nc(-c3ccccc3)nc3ccccc23)n[nH]1,94.8%
3,COc1cc2ncnc(Nc3ccc(O)c(Br)c3)c2cc1OC,80.6%
4,CCOc1cc2ncnc(Nc3cccc(Br)c3)c2cc1OCC,80.3%

# Biological target: PTK2 (human) (UniProt Q05397)
# Test: as above
# Conditions: compound 0.5 µM; ATP 10 µM
row,SMILES,residual activity
1,O=C(O)c1ccc2c3c1cccc3c(=O)n1c3ccccc3nc21,97.5%
2,Cc1cc(Nc2nc(-c3ccccc3)nc3ccccc23)n[nH]1,59.9%
